Measurements as given in US5817840A, “Water soluble taxol derivatives” (The Scripps Research Institute, priority 1997, dated 1998).
In brackets after ≈: the same amount, converted by molar mass. Read-outs that look alike come from different tables or passages of the source.

Key:
[1] = system: H322 (lung carcinoma); assay: Cytotoxicity (sulphorhodamine B), cancer cell line, Table 1B; assay type: cell-based; conditions: NCI-H322, 72 h
Method: (§1) The cytotoxicities were determined using the sulphorhodamine B assay method (Skehan, P. et al. J. Nat. Canc. Inst. 82, 1107 (1990)).

[2] = system: 786-0 (renal cell carcinoma); assay: as above; assay type: cell-based; conditions: Homo sapiens, 786-0, 72 h
Method: as §1

[3] = system: BT-549 (breast carcinoma); assay: as above; assay type: cell-based; conditions: Homo sapiens, BT-549, 72 h
Method: as §1

[4] = system: MOLT-4 (T-cell leukaemia); assay: as above; assay type: cell-based; conditions: Homo sapiens, MOLT-4, 72 h
Method: as §1

[5] = system: SK (melanoma); assay: as above; assay type: cell-based; conditions: 72 h
Method: as §1

[6] = system: HT-29 (colon carcinoma); assay: as above; assay type: cell-based; conditions: Homo sapiens, HT-29, 72 h
Method: as §1

[7] = system: L1210 (mouse leukaemia); assay: as above; assay type: cell-based; conditions: L1210, 72 h
Method: as §1

[8] = system: BALB/c 3T3 (normal mouse embryo); assay: Cytotoxicity (sulphorhodamine B), normal cell line, Table 1B; assay type: cell-based; conditions: BALB/c3T3, 72 h
Method: as §1

[9] = system: UCLA-P-3 (lung carcinoma); assay: Cytotoxicity (sulphorhodamine B), cancer cell line, Table 1B; assay type: cell-based; conditions: Homo sapiens, UCLA P-3, 72 h
Method: as §1

[10] = system: CHO (Chinese hamster ovary); assay: Cytotoxicity (sulphorhodamine B), normal cell line, Table 1B; assay type: cell-based; conditions: Cricetulus griseus, 72 h
Method: as §1

[11] = system: Capan-1 (pancreatic); assay: Cytotoxicity (sulphorhodamine B), cancer cell line, Table 1B; assay type: cell-based; conditions: Homo sapiens, CAPAN-1, 72 h
Method: as §1

[12] = system: RPMI-7666 (normal human PBLs); assay: Cytotoxicity (sulphorhodamine B), normal cell line, Table 1B; assay type: cell-based; conditions: 72 h
Method: as §1

[13] = system: MCF-7 (breast carcinoma); assay: Cytotoxicity (sulphorhodamine B), cancer cell line, Table 1B; assay type: cell-based; conditions: Homo sapiens, MCF7, 72 h
Method: as §1

[14] = system: HL-60 (promyel carcinoma); assay: as above; assay type: cell-based; conditions: Homo sapiens, HL-60, 72 h
Method: as §1

[15] = system: CHO (normal human mammary); assay: Cytotoxicity (sulphorhodamine B), normal cell line, Table 1B; assay type: cell-based; conditions: Homo sapiens, 72 h
[16] = system: NHDF (normal human skin); assay: as above; assay type: cell-based; conditions: 72 h
Method: as §1

[17] = system: SIHA (cervix carcinoma); assay: Cytotoxicity (sulphorhodamine B), cancer cell line, Table 1B; assay type: cell-based; conditions: Homo sapiens, SiHa, 72 h
Method: as §1

[18] = system: PC-3 (prostate carcinoma); assay: as above; assay type: cell-based; conditions: Homo sapiens, 72 h
Method: as §1

[19] = Water solubility in D2O by 1H NMR; conditions: d2o
Method: The solubilities of the synthesized protaxols in D2 O were determined by 1H NMR spectroscopy.
The resulting mixture was centrifuged for 20 minutes and the supernatant saturated solution was analysed by ^1 H NMR spectroscopy using a Bruker AMX-400 instrument and methanol or pyridine as internal standard. The concentration of the compound was determined by comparing several signals with the CH3 signal of methanol or the NCH signal of pyridine.

[20] = Taxol release from protaxols in aqueous buffer; assay type: physicochemical; conditions: aqueous buffer
Method: The derivatives in which the C-7 hydroxyl group was acetylated were extremely unstable in aqueous media losing the C-7 substituent very rapidly. The stability of the synthesized compounds was examined at various pH's and temperatures. […] Table 1A includes the half-lives of six of these compounds at pH 7.5 and 9. […] This illustrates the ability to fine-tune the rate of release of taxol to a desired set of conditions using simple chemical principles.
Protaxol 5 was dissolved in dimethylsulphoxide (DMSO) at 25° C. and immediately added to the appropriate phosphate buffer solution at the specified temperature. Aliquots were analysed using a Waters Maxima system HPLC instrument equipped with auto-injector (3.9×300 mm C18 column equipped with a precolumn; flow rate, 1.5 ml min^-1; eluant, gradient A-B, where A is 80% 100 mM ammonium acetate, buffer pH 6.0, and B is 100% methanol; ultraviolet detector). The per cent taxol released was determined from the relative areas of the peaks corresponding to protaxol 5 and taxol (the conversion was clean, and it was assumed that the two compounds have equal molar extinction coefficients).

[21] = system: OVCAR-3 (ovarian carcinoma); assay: Cytotoxicity (sulphorhodamine B), cancer cell line, Table 1B; assay type: cell-based; conditions: Homo sapiens, OVCAR-3, 72 h
Method: as §1

[22] = pH 7.5, 37° C., read-out: t1/2 (pH 7.5), 50% taxol release
[23] = pH 9, 37° C., read-out: t1/2 (pH 9), 50% taxol release

Q: For `CC(=O)O[C@H]1C(=O)[C@]2(C)[C@@H](OC(=O)CSCC(=O)O)C[C@H]3OC[C@@]3(OC(C)=O)[C@H]2[C@H](OC(=O)c2ccccc2)[C@]2(O)C[C@H](OC(=O)[C@H](OC(=O)CSCC(=O)O)[C@@H](NC(=O)c3ccccc3)c3ccccc3)C(C)=C1C2(C)C` [Compound 12], which IC50 [1] is on record?
A: Its IC50 is 100 nM.

Q: What about the IC50 [2] of the same compound?
A: The IC50 was 1 µM.

Q: And the IC50 [3]?
A: The IC50 was < 1 nM.

Q: And the IC50 [4]?
A: The IC50 was < 1 nM.

Q: And the IC50 [5]?
A: Its IC50 is 10 µM.

Q: And the IC50 [6]?
A: The IC50 was 100 nM.

Q: What about the IC50 [7] of the same compound?
A: The IC50 was 1 µM.

Q: What about the IC50 [8] of the same compound?
A: Its IC50 is 10 µM.

Q: And the IC50 [9]?
A: Its IC50 is 1 nM.

Q: And the IC50 [10]?
A: The IC50 was 100 µM.

Q: What about the IC50 [11] of the same compound?
A: Its IC50 is < 1 nM.

Q: What about the IC50 [12] of the same compound?
A: Its IC50 is 100 µM.

Q: What about the IC50 [13] of the same compound?
A: The IC50 was 10 µM.

Q: What about the IC50 [14] of the same compound?
A: Its IC50 is < 1 nM.

Q: What about the IC50 [15] of the same compound?
A: Its IC50 is 100 µM.

Q: And the IC50 [16]?
A: Its IC50 is 1000 nM.

Q: What about the IC50 [17] of the same compound?
A: The IC50 was 10 µM.

Q: And the IC50 [18]?
A: The IC50 was 1000 nM.

Q: With `CC(=O)O[C@H]1C(=O)[C@@]2(C)[C@H]([C@H](OC(=O)c3ccccc3)[C@]3(O)C[C@H](OC(=O)[C@H](OC(=O)CS(=O)(=O)CC(=O)O)[C@@H](NC(=O)c4ccccc4)c4ccccc4)C(C)=C1C3(C)C)[C@]1(OC(C)=O)CO[C@@H]1C[C@@H]2O` [drawing 7] as the compound, how does the solubility [19] read?
A: The solubility was 1200 µg/mL (≈ 1180 µM).

Q: What about the half-life [20, 22] of the same compound?
A: The half-life was > 500 min.

Q: What about the half-life [20, 23] of the same compound?
A: The half-life was 30 min.

Q: With `CC(=O)O[C@H]1C(=O)[C@]2(C)[C@@H](OC(=O)CSCC(=O)O)C[C@H]3OC[C@@]3(OC(C)=O)[C@H]2[C@H](OC(=O)c2ccccc2)[C@]2(O)C[C@H](OC(=O)[C@H](OC(=O)CSCC(=O)O)[C@@H](NC(=O)c3ccccc3)c3ccccc3)C(C)=C1C2(C)C` [drawing 14] as the compound, how does the solubility [19] read?
A: The solubility was 460 µg/mL (≈ 411 µM).

Q: With `CC(=O)O[C@H]1C(=O)[C@@]2(C)[C@H]([C@H](OC(=O)c3ccccc3)[C@]3(O)C[C@H](OC(=O)[C@H](OC(=O)COCC(=O)O)[C@@H](NC(=O)c4ccccc4)c4ccccc4)C(C)=C1C3(C)C)[C@]1(OC(C)=O)CO[C@@H]1C[C@@H]2O` [drawing 5] as the compound, how does the solubility [19] read?
A: The solubility was 840 µg/mL (≈ 866 µM).

Q: And the half-life [20, 22]?
A: The half-life was > 500 min.

Q: And the half-life [20, 23]?
A: The half-life was 110 min.

Q: What does the source list for `CC(=O)O[C@H]1C(=O)[C@@]2(C)[C@H]([C@H](OC(=O)c3ccccc3)[C@]3(O)C[C@H](OC(=O)[C@H](OC(=O)OCCS(=O)(=O)c4ccc([N+](=O)[O-])cc4)[C@@H](NC(=O)c4ccccc4)c4ccccc4)C(C)=C1C3(C)C)[C@]1(OC(C)=O)CO[C@@H]1C[C@@H]2O` [drawing 11]?
A: half-life [20, 22]: > 500 min; half-life [20, 23]: 7 min

Q: Which IC50 [21] does the source give for `CC(=O)O[C@H]1C(=O)[C@@]2(C)[C@H]([C@H](OC(=O)c3ccccc3)[C@]3(O)C[C@H](OC(=O)[C@H](OC(=O)OCCSc4ccccc4)[C@@H](NC(=O)c4ccccc4)c4ccccc4)C(C)=C1C3(C)C)[C@]1(OC(C)=O)CO[C@@H]1C[C@@H]2O` [Compound 7] here?
A: The IC50 was < 1 nM.

Q: And the IC50 [1]?
A: The IC50 was 1 nM.

Q: What about the IC50 [2] of the same compound?
A: The IC50 was 10 µM.

Q: And the IC50 [3]?
A: The IC50 was < 1 nM.

Q: And the IC50 [4]?
A: The IC50 was < 1 nM.

Q: And the IC50 [5]?
A: The IC50 was 10 µM.

Q: What about the IC50 [6] of the same compound?
A: The IC50 was < 1 nM.

Q: What about the IC50 [7] of the same compound?
A: The IC50 was 10 µM.

Q: What about the IC50 [8] of the same compound?
A: Its IC50 is 10 µM.

Q: And the IC50 [9]?
A: The IC50 was < 1 nM.

Q: And the IC50 [10]?
A: The IC50 was 100 µM.

Q: And the IC50 [11]?
A: Its IC50 is < 1 nM.

Q: And the IC50 [12]?
A: The IC50 was 100 µM.

Q: What about the IC50 [13] of the same compound?
A: Its IC50 is 10 µM.

Q: And the IC50 [14]?
A: Its IC50 is < 1 nM.

Q: What about the IC50 [15] of the same compound?
A: The IC50 was 100 µM.

Q: What about the IC50 [16] of the same compound?
A: Its IC50 is 1000 nM.

Q: And the IC50 [17]?
A: Its IC50 is 10 µM.

Q: What about the IC50 [18] of the same compound?
A: The IC50 was 1000 nM.
